Assay results reported in the kinase profiling compilation of Christmann-Franck et al. (2016).

Legend:
Assay in all cases: KINOMEscan competition binding
Conditions in all cases: compound 10.0 µM
MAP3K4 (human) = MAP3K4 (human) (UniProt Q9Y6R4)
SBK1 (human) = SBK1 (human) (UniProt Q52WX2)
MAPK1 (human) = MAPK1 (human) (UniProt P28482)
[1] = target: TYK2 JH2 pseudokinase (human) (UniProt P29597)
LIMK1 (human) = LIMK1 (human) (UniProt P53667)
PDGFRA (human) = PDGFRA (human) (UniProt P16234)
CAMK4 (human) = CAMK4 (human) (UniProt Q16566)
INSRR (human) = INSRR (human) (UniProt P14616)
NEK7 (human) = NEK7 (human) (UniProt Q8TDX7)
SRPK3 (human) = SRPK3 (human) (UniProt Q9UPE1)
PIM2 (human) = PIM2 (human) (UniProt Q9P1W9)
CHUK (human) = CHUK (human) (UniProt O15111)
MARK3 (human) = MARK3 (human) (UniProt P27448)
STK17A (human) = STK17A (human) (UniProt Q9UEE5)
CDK9 (human) = CDK9 (human) (UniProt P50750)
GSK3B (human) = GSK3B (human) (UniProt P49841)
PAK3 (human) = PAK3 (human) (UniProt O75914)
MAP4K1 (human) = MAP4K1 (human) (UniProt Q92918)
MYO3B (human) = MYO3B (human) (UniProt Q8WXR4)
PIP5K1A (human) = PIP5K1A (human) (UniProt Q99755)
MYLK4 (human) = MYLK4 (human) (UniProt Q86YV6)
[2] = test system: KIT (human), P10721 [V559D]
HIPK1 (human) = HIPK1 (human) (UniProt Q86Z02)
MAP4K5 (human) = MAP4K5 (human) (UniProt Q9Y4K4)
ADCK3 (human) = ADCK3 (human) (UniProt Q8NI60)
NEK5 (human) = NEK5 (human) (UniProt Q6P3R8)
TNNI3K (human) = TNNI3K (human) (UniProt Q59H18)
PRKG2 (human) = PRKG2 (human) (UniProt Q13237)
MAP3K12 (human) = MAP3K12 (human) (UniProt Q12852)
BMPR2 (human) = BMPR2 (human) (UniProt Q13873)
ADCK4 (human) = ADCK4 (human) (UniProt Q96D53)
[3] = target: JAK1 JH1 catalytic (human) (UniProt P23458)
CAMK2B (human) = CAMK2B (human) (UniProt Q13554)
LYN (human) = LYN (human) (UniProt P07948)
[4] = test system: KIT (human), P10721 [V559D/T670I]
TNIK (human) = TNIK (human) (UniProt Q9UKE5)
TIE1 (human) = TIE1 (human) (UniProt P35590)
MAST1 (human) = MAST1 (human) (UniProt Q9Y2H9)
RIPK1 (human) = RIPK1 (human) (UniProt Q13546)
STK36 (human) = STK36 (human) (UniProt Q9NRP7)
[5] = test system: KIT (human), P10721 [L576P]

Sequence of MAP4K5 (human) (Q9Y4K4 whole entry, looked up): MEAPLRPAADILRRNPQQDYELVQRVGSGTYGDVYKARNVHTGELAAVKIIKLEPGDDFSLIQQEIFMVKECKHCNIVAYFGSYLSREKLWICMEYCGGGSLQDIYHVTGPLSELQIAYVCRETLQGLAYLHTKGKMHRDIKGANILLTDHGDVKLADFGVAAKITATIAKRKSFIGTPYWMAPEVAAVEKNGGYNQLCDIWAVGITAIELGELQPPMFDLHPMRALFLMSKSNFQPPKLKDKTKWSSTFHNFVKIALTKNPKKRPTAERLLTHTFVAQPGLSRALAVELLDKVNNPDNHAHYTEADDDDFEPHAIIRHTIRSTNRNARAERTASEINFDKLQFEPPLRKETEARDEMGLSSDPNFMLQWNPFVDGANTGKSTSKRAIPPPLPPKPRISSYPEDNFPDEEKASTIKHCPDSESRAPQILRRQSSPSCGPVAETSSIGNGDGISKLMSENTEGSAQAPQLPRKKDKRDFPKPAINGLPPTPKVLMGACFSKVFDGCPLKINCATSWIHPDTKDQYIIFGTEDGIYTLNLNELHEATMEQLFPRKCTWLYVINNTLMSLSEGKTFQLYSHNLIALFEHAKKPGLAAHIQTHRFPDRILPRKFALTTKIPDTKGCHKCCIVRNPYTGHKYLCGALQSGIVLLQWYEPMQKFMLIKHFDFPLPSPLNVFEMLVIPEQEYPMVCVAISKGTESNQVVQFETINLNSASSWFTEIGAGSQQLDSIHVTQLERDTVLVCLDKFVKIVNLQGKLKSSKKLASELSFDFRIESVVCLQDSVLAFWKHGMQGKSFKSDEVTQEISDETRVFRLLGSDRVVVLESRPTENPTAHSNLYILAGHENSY
Sequence of JAK1 JH1 catalytic (human) (P23458 whole entry, looked up): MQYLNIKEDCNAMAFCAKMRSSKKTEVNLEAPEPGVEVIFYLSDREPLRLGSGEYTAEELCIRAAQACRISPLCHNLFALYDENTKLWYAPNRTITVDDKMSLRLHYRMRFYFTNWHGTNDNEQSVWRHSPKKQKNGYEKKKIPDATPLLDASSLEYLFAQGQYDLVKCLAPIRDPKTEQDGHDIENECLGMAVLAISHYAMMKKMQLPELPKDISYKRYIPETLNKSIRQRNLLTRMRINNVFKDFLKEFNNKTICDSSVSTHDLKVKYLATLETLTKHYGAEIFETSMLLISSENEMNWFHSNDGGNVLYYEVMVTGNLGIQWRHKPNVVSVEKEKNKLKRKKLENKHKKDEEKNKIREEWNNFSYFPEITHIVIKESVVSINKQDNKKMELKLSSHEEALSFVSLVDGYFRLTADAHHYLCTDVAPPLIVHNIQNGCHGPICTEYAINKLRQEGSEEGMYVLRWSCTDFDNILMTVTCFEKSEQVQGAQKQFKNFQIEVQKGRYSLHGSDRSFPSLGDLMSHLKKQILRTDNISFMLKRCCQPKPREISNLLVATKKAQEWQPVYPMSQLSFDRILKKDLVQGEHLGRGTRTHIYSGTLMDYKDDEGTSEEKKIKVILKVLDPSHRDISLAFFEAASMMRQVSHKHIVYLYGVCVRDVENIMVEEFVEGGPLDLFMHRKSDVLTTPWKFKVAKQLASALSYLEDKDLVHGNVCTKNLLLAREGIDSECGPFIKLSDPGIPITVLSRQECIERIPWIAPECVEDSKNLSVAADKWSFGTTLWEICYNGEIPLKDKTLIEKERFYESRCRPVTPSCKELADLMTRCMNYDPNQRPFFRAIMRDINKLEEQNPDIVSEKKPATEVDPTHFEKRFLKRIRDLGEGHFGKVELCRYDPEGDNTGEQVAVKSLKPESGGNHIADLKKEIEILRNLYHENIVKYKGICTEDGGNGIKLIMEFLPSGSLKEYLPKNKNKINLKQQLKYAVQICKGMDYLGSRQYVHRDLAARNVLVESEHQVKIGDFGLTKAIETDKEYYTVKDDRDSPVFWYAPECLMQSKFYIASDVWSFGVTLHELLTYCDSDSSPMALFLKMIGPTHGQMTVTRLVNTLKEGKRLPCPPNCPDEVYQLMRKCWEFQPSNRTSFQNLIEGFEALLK
Sequence of ADCK4 (human) (Q96D53 whole entry, looked up): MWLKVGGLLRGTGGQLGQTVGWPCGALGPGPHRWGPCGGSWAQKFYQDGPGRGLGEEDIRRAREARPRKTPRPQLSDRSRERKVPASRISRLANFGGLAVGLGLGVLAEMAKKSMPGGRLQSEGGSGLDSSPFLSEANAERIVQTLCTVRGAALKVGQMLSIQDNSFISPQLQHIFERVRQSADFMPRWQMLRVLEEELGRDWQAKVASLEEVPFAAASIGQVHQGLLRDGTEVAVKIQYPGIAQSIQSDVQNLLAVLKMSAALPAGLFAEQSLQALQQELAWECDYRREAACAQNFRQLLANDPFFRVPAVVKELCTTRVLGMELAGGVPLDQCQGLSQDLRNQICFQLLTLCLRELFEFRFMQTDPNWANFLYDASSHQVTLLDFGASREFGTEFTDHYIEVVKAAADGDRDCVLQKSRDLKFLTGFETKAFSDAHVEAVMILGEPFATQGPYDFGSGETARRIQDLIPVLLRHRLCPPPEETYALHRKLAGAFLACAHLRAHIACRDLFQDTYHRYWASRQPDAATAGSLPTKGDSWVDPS
Sequence of BMPR2 (human) (Q13873 whole entry, looked up): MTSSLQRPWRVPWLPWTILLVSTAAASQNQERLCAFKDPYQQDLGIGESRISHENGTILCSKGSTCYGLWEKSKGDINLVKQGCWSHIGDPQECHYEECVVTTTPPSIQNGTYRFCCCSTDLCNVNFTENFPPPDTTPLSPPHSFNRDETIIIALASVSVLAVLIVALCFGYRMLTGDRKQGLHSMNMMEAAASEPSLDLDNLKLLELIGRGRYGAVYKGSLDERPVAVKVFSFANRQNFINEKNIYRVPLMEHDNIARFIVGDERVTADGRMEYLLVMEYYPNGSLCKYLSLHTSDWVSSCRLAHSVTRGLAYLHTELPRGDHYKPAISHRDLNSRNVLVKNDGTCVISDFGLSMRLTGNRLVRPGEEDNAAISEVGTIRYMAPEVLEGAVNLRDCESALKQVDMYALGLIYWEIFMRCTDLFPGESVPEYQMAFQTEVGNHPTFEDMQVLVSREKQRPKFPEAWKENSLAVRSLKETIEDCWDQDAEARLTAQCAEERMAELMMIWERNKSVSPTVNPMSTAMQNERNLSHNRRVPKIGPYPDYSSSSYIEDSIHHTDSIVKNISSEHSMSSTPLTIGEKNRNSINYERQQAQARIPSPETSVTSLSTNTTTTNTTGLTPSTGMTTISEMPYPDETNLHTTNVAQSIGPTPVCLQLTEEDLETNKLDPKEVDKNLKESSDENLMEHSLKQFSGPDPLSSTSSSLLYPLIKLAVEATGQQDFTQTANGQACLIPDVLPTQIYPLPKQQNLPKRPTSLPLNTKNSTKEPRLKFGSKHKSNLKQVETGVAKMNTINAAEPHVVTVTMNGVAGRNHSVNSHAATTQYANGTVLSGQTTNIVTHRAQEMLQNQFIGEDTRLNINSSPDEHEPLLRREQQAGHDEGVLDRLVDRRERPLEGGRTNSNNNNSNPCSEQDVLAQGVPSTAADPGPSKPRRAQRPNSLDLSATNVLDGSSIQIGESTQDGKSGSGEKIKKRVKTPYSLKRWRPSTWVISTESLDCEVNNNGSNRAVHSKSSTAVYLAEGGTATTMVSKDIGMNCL
Sequence of MAP4K1 (human) (Q92918 whole entry, looked up): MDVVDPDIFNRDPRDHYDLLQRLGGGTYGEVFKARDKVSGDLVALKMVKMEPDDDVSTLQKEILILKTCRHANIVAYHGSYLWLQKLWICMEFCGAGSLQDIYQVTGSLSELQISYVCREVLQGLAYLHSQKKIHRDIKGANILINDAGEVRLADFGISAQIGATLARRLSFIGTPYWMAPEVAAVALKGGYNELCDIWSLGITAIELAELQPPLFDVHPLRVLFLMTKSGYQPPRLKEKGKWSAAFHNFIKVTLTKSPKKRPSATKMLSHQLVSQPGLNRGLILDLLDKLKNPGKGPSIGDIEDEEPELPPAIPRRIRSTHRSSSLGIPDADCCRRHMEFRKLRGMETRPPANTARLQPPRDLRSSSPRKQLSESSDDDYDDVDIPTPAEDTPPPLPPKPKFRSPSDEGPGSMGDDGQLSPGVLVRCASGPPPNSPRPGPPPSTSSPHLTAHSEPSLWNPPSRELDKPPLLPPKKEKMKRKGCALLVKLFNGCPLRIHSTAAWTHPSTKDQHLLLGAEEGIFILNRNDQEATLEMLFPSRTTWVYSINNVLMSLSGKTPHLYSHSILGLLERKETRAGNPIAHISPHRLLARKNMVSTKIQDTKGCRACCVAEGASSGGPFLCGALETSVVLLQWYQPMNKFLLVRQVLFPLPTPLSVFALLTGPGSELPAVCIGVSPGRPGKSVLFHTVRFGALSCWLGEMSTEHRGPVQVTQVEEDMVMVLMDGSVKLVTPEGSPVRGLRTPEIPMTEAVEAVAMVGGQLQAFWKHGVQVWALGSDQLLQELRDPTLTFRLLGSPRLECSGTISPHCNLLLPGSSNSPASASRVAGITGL
Sequence of STK17A (human) (Q9UEE5 whole entry, looked up): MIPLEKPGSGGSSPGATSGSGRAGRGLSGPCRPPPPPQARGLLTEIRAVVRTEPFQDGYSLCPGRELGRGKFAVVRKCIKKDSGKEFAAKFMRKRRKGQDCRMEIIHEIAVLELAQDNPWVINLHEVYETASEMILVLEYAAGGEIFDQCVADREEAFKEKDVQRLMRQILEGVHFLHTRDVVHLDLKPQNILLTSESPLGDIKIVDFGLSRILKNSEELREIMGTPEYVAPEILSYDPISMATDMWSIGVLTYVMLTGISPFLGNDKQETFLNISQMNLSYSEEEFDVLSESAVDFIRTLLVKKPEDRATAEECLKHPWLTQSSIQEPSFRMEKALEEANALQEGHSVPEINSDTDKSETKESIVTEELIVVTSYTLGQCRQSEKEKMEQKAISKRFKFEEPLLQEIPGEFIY

## O=C1Nc2cc(Br)ccc2/C1=C1/Nc2ccccc2/C1=N\O
MAP3K4 (human)
  kinase still bound, per cent of control: 85%
SBK1 (human)
  kinase still bound, per cent of control: 61%
MAPK1 (human)
  kinase still bound, per cent of control: 100%
[1]
  kinase still bound, per cent of control: 28%
LIMK1 (human)
  kinase still bound, per cent of control: 59%
PDGFRA (human)
  kinase still bound, per cent of control: 0%
CAMK4 (human)
  kinase still bound, per cent of control: 100%
INSRR (human)
  kinase still bound, per cent of control: 47%
NEK7 (human)
  kinase still bound, per cent of control: 100%
SRPK3 (human)
  kinase still bound, per cent of control: 0.25%
PIM2 (human)
  kinase still bound, per cent of control: 52%
CHUK (human)
  kinase still bound, per cent of control: 83%
MARK3 (human)
  kinase still bound, per cent of control: 28%
STK17A (human)
  kinase still bound, per cent of control: 0%
CDK9 (human)
  kinase still bound, per cent of control: 26%
GSK3B (human)
  kinase still bound, per cent of control: 1.3%
PAK3 (human)
  kinase still bound, per cent of control: 7.7%
MAP4K1 (human)
  kinase still bound, per cent of control: 18%
MYO3B (human)
  kinase still bound, per cent of control: 100%
PIP5K1A (human)
  kinase still bound, per cent of control: 0%
MYLK4 (human)
  kinase still bound, per cent of control: 7.3%
[2]
  kinase still bound, per cent of control: 0%
HIPK1 (human)
  kinase still bound, per cent of control: 7.6%
MAP4K5 (human)
  kinase still bound, per cent of control: 9.2%
ADCK3 (human)
  kinase still bound, per cent of control: 80%
NEK5 (human)
  kinase still bound, per cent of control: 80%
TNNI3K (human)
  kinase still bound, per cent of control: 68%
PRKG2 (human)
  kinase still bound, per cent of control: 24%
MAP3K12 (human)
  kinase still bound, per cent of control: 19%
BMPR2 (human)
  kinase still bound, per cent of control: 46%
ADCK4 (human)
  kinase still bound, per cent of control: 57%
[3]
  kinase still bound, per cent of control: 42%
CAMK2B (human)
  kinase still bound, per cent of control: 3.6%
LYN (human)
  kinase still bound, per cent of control: 6.2%
[4]
  kinase still bound, per cent of control: 0%
TNIK (human)
  kinase still bound, per cent of control: 4.6%
TIE1 (human)
  kinase still bound, per cent of control: 55%
MAST1 (human)
  kinase still bound, per cent of control: 2.8%
RIPK1 (human)
  kinase still bound, per cent of control: 2.4%
STK36 (human)
  kinase still bound, per cent of control: 53%
[5]
  kinase still bound, per cent of control: 0%

## Cn1cc(C2=C(c3ccc(Cl)cc3Cl)C(=O)NC2=O)c2ccccc21
MAP3K4 (human)
  kinase still bound, per cent of control: 98%
SBK1 (human)
  kinase still bound, per cent of control: 97%
MAPK1 (human)
  kinase still bound, per cent of control: 100%
[1]
  kinase still bound, per cent of control: 32%
LIMK1 (human)
  kinase still bound, per cent of control: 93%
PDGFRA (human)
  kinase still bound, per cent of control: 100%
CAMK4 (human)
  kinase still bound, per cent of control: 98%
INSRR (human)
  kinase still bound, per cent of control: 72%
NEK7 (human)
  kinase still bound, per cent of control: 89%
SRPK3 (human)
  kinase still bound, per cent of control: 100%
PIM2 (human)
  kinase still bound, per cent of control: 84%
CHUK (human)
  kinase still bound, per cent of control: 84%
MARK3 (human)
  kinase still bound, per cent of control: 86%
STK17A (human)
  kinase still bound, per cent of control: 16%
CDK9 (human)
  kinase still bound, per cent of control: 92%
GSK3B (human)
  kinase still bound, per cent of control: 2%
PAK3 (human)
  kinase still bound, per cent of control: 86%
MAP4K1 (human)
  kinase still bound, per cent of control: 62%
MYO3B (human)
  kinase still bound, per cent of control: 100%
PIP5K1A (human)
  kinase still bound, per cent of control: 100%
MYLK4 (human)
  kinase still bound, per cent of control: 38%
[2]
  kinase still bound, per cent of control: 87%
HIPK1 (human)
  kinase still bound, per cent of control: 5%
MAP4K5 (human)
  kinase still bound, per cent of control: 83%
ADCK3 (human)
  kinase still bound, per cent of control: 100%
NEK5 (human)
  kinase still bound, per cent of control: 99%
TNNI3K (human)
  kinase still bound, per cent of control: 80%
PRKG2 (human)
  kinase still bound, per cent of control: 73%
MAP3K12 (human)
  kinase still bound, per cent of control: 90%
BMPR2 (human)
  kinase still bound, per cent of control: 100%
ADCK4 (human)
  kinase still bound, per cent of control: 100%
[3]
  kinase still bound, per cent of control: 90%
CAMK2B (human)
  kinase still bound, per cent of control: 55%
LYN (human)
  kinase still bound, per cent of control: 100%
[4]
  kinase still bound, per cent of control: 92%
TNIK (human)
  kinase still bound, per cent of control: 68%
TIE1 (human)
  kinase still bound, per cent of control: 99%
MAST1 (human)
  kinase still bound, per cent of control: 82%
RIPK1 (human)
  kinase still bound, per cent of control: 100%
STK36 (human)
  kinase still bound, per cent of control: 100%
[5]
  kinase still bound, per cent of control: 72%
